In patent US8410094B2, “Amide compounds, their pharmaceutical compositions, their preparation method and their uses” (Shanghai Institute of Materia Medica, Chinese Academy of …, priority 2008, dated 2013) one finds IC50 and inhibition data, which are given here for 18 molecules.

What is called IC50 is the concentration at which inhibition is half-maximal. As a reminder, the inhibition is the share of the control response that was lost under treatment.

In one assay the target is T1, CCR5 (Homo sapiens, UniProt P51681).
T1 construct: expressed in transfected cells
T1 sequence (P51681 whole entry): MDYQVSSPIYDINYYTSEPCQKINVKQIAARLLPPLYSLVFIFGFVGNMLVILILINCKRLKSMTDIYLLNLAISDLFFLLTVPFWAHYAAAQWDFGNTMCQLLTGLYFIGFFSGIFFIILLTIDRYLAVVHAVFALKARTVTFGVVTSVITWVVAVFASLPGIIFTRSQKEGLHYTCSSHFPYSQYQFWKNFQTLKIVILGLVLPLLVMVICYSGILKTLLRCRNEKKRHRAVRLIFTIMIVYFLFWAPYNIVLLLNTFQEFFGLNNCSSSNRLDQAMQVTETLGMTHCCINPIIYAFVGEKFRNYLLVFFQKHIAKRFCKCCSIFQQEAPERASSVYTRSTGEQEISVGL
The assay can be described thus: Inhibition of CCR5: [35S]GTPγS binding assays (filtration, SPA-WGA) and calcium influx assay, 10 nM RANTES, CHO-CCR5. In kind it is biochemical. Particulars: inhibition of GTPγS binding induced by 10 nM RANTES, CHO-CCR5. How it is done:
CCR5 belongs to G-Protein-Coupled Receptor (GPCR) family. The developing technology of GPCR-based drugs have been well-developed, among them, the experimental techniques such as ligand-receptor binding assay, GTPγS binding assay and Ca^2+ flux assay have been widely used in drug-screening related to chemokine receptors. The inhibitory activities of the compounds according to the present invention against CCR5 are measured by three methods, i.e., [^35S]GTPγS filter binding assay, SPA-WGA-based [^35S]GTPγS binding assay and calcium influx assay. At the same time, the antiviral activities in cell of the compounds according to the present invention are evaluated by using two kinds HIV-1 subtypes: H4DA5 cell model and PBMC system virus replication model.
A. [^35S]GTPγS Binding Assay
After binding with an agonist, CCR5 experiences a conformation change such that CCR5 interacts with G protein so as to active the G protein. G protein is a tripolymer composed of α-subunit and βγ-subunit. Since the ability of α-subunit binding to GTP depends on the interaction of CCR5 with the agonist, the ability of an agonist for activating CCR5 can be reflected by determining the amount of GTP binding to α-subunit. In a GTPγS binding assay, a ^35S-labeled GTP analogue GTPγS, which can bind with an activated α-subunit without being hydrolyzed, is used to replace GTP in order for eliminating the defect that the amount of GTP binding to G protein can not exactly reflect the activation of CCR5 due to the hydrolysis of GTO by GTPase and for convenience of detection. So, α-subunit binds with GDP when CCR5 is not activated, and after the activation of CCR5, α-subunit binds with GTPγS such that GTPγS irreversible binds to α-subunit. Therefore, the amount of [^35S]-GTPγS binding to α-subunit could reflect the level of CCR5 activated by an agonist. The ability of the agonist for activating CCR5 will decrease when an antagonist is added.
Such experiment has been referred to as GTPγS filtration assay in which [^35S]-GTPγS bound with the free G protein could be separated by membrane filtration.
Alternatively, SPA (Scintillation Proximity Assay) technique can be used to detect the [^35S]-GTPγS bound to G protein, which is called SPA-WGA-based [35S]GTPγS binding assay. The principle of SPA technique is as follows. Sub-atomic particles released during the decay of radioactive atoms, for example β-ray (electron), can excite microspheres at a sufficiently close distance to emit light so as to be detected by a Scintillation Counter. In an aqueous solution, most of the energy of these rays is absorbed by the solvent, and the traveling distance of these rays is limited.
The activation of G protein by CCR5 is determined by the following experiments.
CHO (Chinese hamster ovary cell) permanent cell line expressing CCR5 (CHO-CCR5) (a cell line constructed by Shanghai Targetdrug Ltd.) was lysed with a lysis buffer (5 mM Tris-HCl, pH 7.5, 5 mM EDTA and 5 mM EGTA) and then centrifugated at 15,000×g for 10 min to obtain cell membrane. After the cell membrane was resuspended in a reaction buffer (5 mM Tris-HCl, pH 7.5, 5 mM MgCl2, 1 mM EGTA, 100 mM NaCl), the protein concentration was determined using Bioford Protein Assay Kit manufactured by Bio-Rad Laboratories Inc. Subsequently, GTPγS binding assay was performed in the reaction buffer, wherein the reaction system was 100 μL containing 10 μg membrane protein, 40 μM GDP and 0.5 nM [^35S]-GTPγS (1200 Ci/mmol). After the compound to be tested (the compound was first dissolved in DMSO and then diluted in gradient with the reaction buffer according to the specific situation, wherein the final concentration of DMSO was 1% (v/v) in the whole reaction system) was added and shaken to mix homogeneously, the reaction tube was incubated at 30° C. for 1 hour. After the reaction finished, the tube was placed on ice, and the reaction mixture was diluted with PBS to quench the reaction and filtered under reduced pressure with a GF/C filter membrane. […]
(In general: GTPγS is a poorly hydrolysed GTP analogue; its binding reports G protein activation.)
On to “1-acetyl-N-(3-chloro-4-methylphenyl)-N-(3-(3-exo-(2-(4-(pyrrolidine-1-sulfonyl)phenyl)acetamido)-8-azabicyclo[3.2.1]oct-8-yl)propyl)-4-piperidinylcarboxamide [Compound 7i]”, for which the IC50 is 2.97 nM. As for `CC(=O)N1CCC(C(=O)N(CCCN2[C@@H]3CC[C@H]2C[C@H](NC(=O)Cc2ccc(F)cc2)C3)c2ccc(C)c(Cl)c2)CC1` [Compound 7b, 1-acetyl-N-(3-chloro-4-methylphenyl)-N-(3-(3-exo-(2-(4-fluorphenyl)acetamido)-8-azabicyclo[3.2.1]oct-8-yl)propyl)-4-piperidinylcarboxamide], the IC50 worked out at 31.1 nM.

On to `CC(=O)N1CCC(C(=O)N(CCCN2[C@@H]3CC[C@H]2C[C@H](NC(=O)Cc2ccc(Cl)cc2)C3)c2ccc(C)c(Cl)c2)CC1` [Compound 7c, 1-acetyl-N-(3-chloro-4-methylphenyl)-N-(3-(3-exo-(2-(4-chlorphenyl)acetamido)-8-azabicyclo[3.2.1]oct-8-yl)propyl)-4-piperidinylcarboxamide], for which the IC50 stood at 15.1 nM. For the molecule `CC(=O)N1CCC(C(=O)N(CCCN2[C@@H]3CC[C@H]2C[C@H](NC(=O)Cc2ccc(C(F)(F)F)cc2)C3)c2ccc(C)c(Cl)c2)CC1` [Compound 7d, 1-acetyl-N-(3-chloro-4-methylphenyl)-N-(3-(3-exo-(2-(4-(trifluoromethyl)phenyl)acetamido)-8-azabicyclo[3.2.1]oct-8-yl)propyl)-4-piperidinylcarboxamide], the IC50 came to 49.4 nM. Take `CC(=O)N1CCC(C(=O)N(CCCN2C3CCC2CC(NC(=O)CC24CC5CC(CC(C5)C2)C4)C3)c2ccc(C)c(Cl)c2)CC1` (stereo not drawn) [Compound 7e, 1-acetyl-N-(3-chloro-4-methylphenyl)-N-(3-(3-exo-(2-(1-adamantyl)acetamido)-8-azabicyclo[3.2.1]oct-8-yl)propyl)-4-piperidinylcarboxamide]: the IC50 was 209 nM.

As for `CC(=O)N1CCC(C(=O)N(CCCN2[C@@H]3CC[C@H]2C[C@H](NC(=O)Cc2ccc([N+](=O)[O-])cc2)C3)c2ccc(C)c(Cl)c2)CC1` [Compound 7f, 1-acetyl-N-(3-chloro-4-methylphenyl)-N-(3-(3-exo-(2-(4-nitrophenyl)acetamido)-8-azabicyclo[3.2.1]oct-8-yl)propyl)-4-piperidinylcarboxamide], the IC50 was 20 nM.

On to `CC(=O)N1CCC(C(=O)N(CCCN2[C@@H]3CC[C@H]2C[C@H](NC(=O)Cc2ccc(O)cc2)C3)c2ccc(C)c(Cl)c2)CC1` [Compound 7g, 1-acetyl-N-(3-chloro-4-methylphenyl)-N-(3-(3-exo-(2-(4-hydroxyphenyl)acetamido)-8-azabicyclo[3.2.1]oct-8-yl)propyl)-4-piperidinylcarboxamide], for which the IC50 was found to be 48.2 nM. As for `CC(=O)N1CCC(C(=O)N(CCCN2[C@@H]3CC[C@H]2C[C@H](NC(=O)Cc2ccc(Cl)c(Cl)c2)C3)c2ccc(C)c(Cl)c2)CC1` [Compound 7h, 1-acetyl-N-(3-chloro-4-methylphenyl)-N-(3-(3-exo-(2-(3,4-dichlorophenyl)acetamido)-8-azabicyclo[3.2.1]oct-8-yl)propyl)-4-piperidinylcarboxamide], the IC50 is 4.89 nM.

As for `CC(=O)N1CCC(C(=O)N(CCCN2[C@@H]3CC[C@H]2C[C@H](NC(=O)Cc2ccc(S(=O)(=O)N(C)C)cc2)C3)c2ccc(C)c(Cl)c2)CC1` [Compound 7j, 1-acetyl-N-(3-chloro-4-methylphenyl)-N-(3-(3-exo-(2-(4-(N,N-dimethylsulphonyl)phenyl)acetamido)-8-azadicyclo[3.2.1]oct-8-yl)propyl)-4-piperidinylcarboxamide], the IC50 came to 3.08 nM. Regarding `CC(=O)N1CCC(C(=O)N(CCCN2[C@@H]3CC[C@H]2C[C@H](NC(=O)Cc2ccc(S(C)(=O)=O)cc2)C3)c2ccc(C)c(Cl)c2)CC1` [Compound 7k, 1-acetyl-N-(3-chloro-4-methylphenyl)-N-(3-(3-exo-(2-(4-(methylsulphonyl)phenyl)acetamido)-8-azabicyclo[3.2.1]oct-8-yl)propyl)-4-piperidinylcarboxamide], the IC50 came to 11.6 nM. In the case of `CC(=O)N1CCC(C(=O)N(CCCN2[C@@H]3CC[C@H]2C[C@H](NC(=O)Cc2ccc(S(=O)(=O)N4CCOCC4)cc2)C3)c2ccc(C)c(Cl)c2)CC1` [Compound 7l, 1-acetyl-N-(3-chloro-4-methylphenyl)-N-(3-(3-exo-(2-(4-(morpholinosulfonyl)phenyl)acetamido)-8-azabicyclo[3.2.1]oct-8-yl)propyl)-4-piperidinylcarboxamide], the IC50 came to 3.46 nM. `CC(=O)N1CCC(C(=O)N(CCCN2[C@@H]3CC[C@H]2C[C@H](NC(=O)Cc2ccc(S(=O)(=O)NC(C)(C)C)cc2)C3)c2ccc(C)c(Cl)c2)CC1` [Compound 7m, 1-acetyl-N-(3-(3-exo-(2-(4-(N-tert-butylsulphonyl)phenyl)acetamido)-8-azabicyclo[3.2.1]oct-8-yl)propyl)-N-(3-chloro-4-methylphenyl)-4-piperidinylcarboxamide]: the IC50 amounted to 7.54 nM. With `CC(=O)N1CCC(C(=O)N(CCCN2[C@@H]3CC[C@H]2C[C@H](NC(=O)Cc2cccc4ccccc24)C3)c2ccc(C)c(Cl)c2)CC1` [Compound 7n, 1-acetyl-N-(3-chloro-4-methylphenyl)-N-(3-(3-exo-(2-(1-naphthyl)acetamido)-8-azabicyclo[3.2.1]oct-8-yl)propyl)-4-piperidinylcarboxamide], the IC50 was 4.75 nM. On the same count and under the same terms, under `CC(=O)N1CCC(C(=O)N(CCCN2[C@@H]3CC[C@H]2C[C@H](NC(=O)Cc2ccc4ccccc4c2)C3)c2ccc(C)c(Cl)c2)CC1` [Compound 7o, 1-acetyl-N-(3-chloro-4-methylphenyl)-N-(3-(3-exo-(2-(2-naphthyl)acetamido)-8-azabicyclo[3.2.1]-oct-8-yl)propyl)-4-piperidinylcarboxamide] stands 697 nM. The same measure, in the same setting: in the case of `CC(=O)N1CCC(C(=O)N(CCCN2C3CCC2CC(NC(=O)C(O)c2ccccc2)C3)c2ccc(C)c(Cl)c2)CC1` (stereo not drawn) [Compound 7p, 1-acetyl-N-(3-chloro-4-methylphenyl)-N-(3-(3-exo-(2-hydroxyl-2-phenylacetamido)-8-azabicyclo[3.2.1]oct-8-yl)propyl)-4-piperidinylcarboxamide] it was 51.5 nM; in that of `CC(=O)N1CCC(C(=O)N(CCCN2[C@@H]3CC[C@H]2C[C@H](NC(=O)Cc2c[nH]c4ccccc24)C3)c2ccc(C)c(Cl)c2)CC1` [Compound 7q, N-(3-(3-exo-(2-(3-indolyl)acetamido)-8-azabicyclo[3.2.1]oct-8-yl)propyl)-1-acetyl-N-(3-chloro-4-methylphenyl)-4-piperidinylcarboxamide], 82 nM. With `COc1cc(CC(=O)N[C@@H]2C[C@H]3CC[C@@H](C2)N3CCCN(C(=O)C2CCN(C(C)=O)CC2)c2ccc(C)c(Cl)c2)cc(OC)c1OC` [Compound 7r, 1-acetyl-N-(3-chloro-4-methylphenyl)-N-(3-(3-exo-(2-(3,4,5-trimethoxylphenyl)acetamido)-8-azabicyclo[3.2.1]oct-8-yl)propyl)-4-piperidinylcarboxamide], the IC50 was 20.3 nM.

Still in this assay, the particulars now being: read-out: inhibition against CCR5 @30 nM.
On to `CC(=O)N1CCC(C(=O)N(CCCN2C3CCC2CC(NC(=O)Cc2ccccc2)C3)c2ccc(C)c(Cl)c2)CC1` (stereo not drawn) [Compound 7a, 1-acetyl-N-(3-chloro-4-methylphenyl)-N-(3-(3-exo-(2-phenylacetamido)-8-azabicyclo[3.2.1]oct-8-yl)propyl)-4-piperidinylcarboxamide], for which the inhibition at 0.03 µM came out at 26.2%.

Still in this assay, the particulars now being: read-out: inhibition against CCR5 @300 nM.
Take `CC(=O)N1CCC(C(=O)N(CCCN2C3CCC2CC(NC(=O)Cc2ccccc2)C3)c2ccc(C)c(Cl)c2)CC1` (stereo not drawn) [Compound 7a, 1-acetyl-N-(3-chloro-4-methylphenyl)-N-(3-(3-exo-(2-phenylacetamido)-8-azabicyclo[3.2.1]oct-8-yl)propyl)-4-piperidinylcarboxamide]: the inhibition at 0.3 µM is 64.6%.
